Measurements taken from PMC7435868, “Structure-Based Virtual Screening, Synthesis and Biological Evaluation of Potential FAK-FAT Domain Inhibitors for Treatment of Metastatic Cancer” (Molecules, 2020).
Counter-ions that a name gives are not always drawn. Like-named read-outs stand apart in the source and are kept apart here.

What was measured:
[1] = system: MDA-MB-231; assay: Cell viability assay (CellTiter Glo), MDA-MB-231; assay type: cell-based; conditions: Homo sapiens, 72 h incubation, mean of independent triplicate experiments, read-out: In vitro anti-proliferative activity IC50, MDA-MB-231 ER- PR- HER-
Method: (§1) The antiproliferative activity of compound I as well as its newly synthesised analogues (5a–i) was evaluated in vitro against the three human breast cancer cell lines MDA-MB-231 (TNBC), T47D (ER^+, HER^−), and BT474 (ER^+, HER^+) as well as a human pancreatic cancer cell line MIAPaCa2. The seeding of the corresponding cell lines started one day before incubation, which lasted for 72 h with the different concentrations of the tested compounds. CellTiter Glo reagent (25 μL) was added to the cell plate. The luminescence was analysed after 10 min using a PerkinElmer Envision instrument. The test compounds were used at ten different triplicate concentrations in half log increments up to 100 μM.

[2] = system: T47D; assay: Cell viability assay (CellTiter Glo), T47D; assay type: cell-based, human; conditions: 72 h incubation, mean of independent triplicate experiments, read-out: In vitro anti-proliferative activity IC50, T47D ER+ PR+/- HER-
Method: as §1

[3] = system: BT474; assay: Cell viability assay (CellTiter Glo), BT474; assay type: cell-based, human; conditions: 72 h incubation, mean of independent triplicate experiments, read-out: In vitro anti-proliferative activity IC50, BT474 ER+ PR+/- HER+
Method: as §1

[4] = system: MIAPaCa2; assay: Cell viability assay (CellTiter Glo), MIAPaCa2; assay type: cell-based; conditions: Homo sapiens, MIA PaCa-2, 72 h incubation, mean of independent triplicate experiments, read-out: In vitro anti-proliferative activity IC50, MIAPaCa2
Method: as §1

[5] = Turbidimetric aqueous solubility; assay type: physicochemical; conditions: 37 °C, 2 h; for Estimated Precipitation Range, Calculated Mid-Range / Estimated Precipitation Range, Lower Bound / Estimated Precipitation Range, Upper Bound: buffered aqueous solution (PBS pH 7.4, 1% DMSO); for Aqueous solubility (in words): turbidimetric
Method: Both the estimated precipitation range (lower and upper bound) and a mid-range value were measured. Nicardipine and pyrene were used as control compounds.
The test compound was diluted in buffer to give a range of concentrations (1, 3, 10, 30, and 100 μM; final DMSO concentration 1%) and incubated at 37 °C for 2 hr.
The test compound (10 mM in DMSO) was serially diluted to give solutions of 0.1, 0.3, 1, and 3 mM in DMSO. Each test compound concentration was then further diluted 1 to 100 in buffer (typically 0.01 M phosphate buffered saline pH 7.4) so that the final DMSO concentration was 1%, and the final test compound concentrations were 1, 3, 10, 30, and 100 μM. The experiment was performed at 37 °C and each concentration was incubated in 7 replicate wells. The plates were incubated for 2 h at 37 °C before the absorbance was measured at 620 nm. Nicardipine and pyrene were included as control compounds. The solubility of nicardipine is pH dependent whereas the solubility of pyrene is pH independent.
An estimated precipitation range (lower and upper bound) and a calculated mid-range value were returned, along with any relevant comments, in the form of an Excel spreadsheet.

[6] = Microsomal metabolic stability; conditions: for Compound Remaining (% of 0 min), 0 min / Compound Remaining (% of 0 min), 5 min / Compound Remaining (% of 0 min), 15 min / Compound Remaining (% of 0 min), 30 min / Compound Remaining (% of 0 min), 45 min / Compound Remaining (% of 0 min), Control: human liver microsomes; for Compound Remaining (% of 0 min), Control: minus NADPH control; for Compound Remaining (% of 0 min), 45 min / Compound Remaining (% of 0 min), Control: 45 min; for half-life at 3 μM / microsomal CLint at 3 μM: human, pH 7.4
Method: Half-life (t1/2) values were measured at five time points.
Intrinsic clearance values (CLint) with standard error and t1⁄2 values were measured.
The final incubation volume was 50 μL. A minus cofactor control incubation was included for each compound tested where 0.1 M phosphate buffer pH 7.4 was added instead of NADPH (minus NADPH). Two control compounds were included with each species. All incubations were performed singularly for each test compound.
The reactions were stopped by transferring 20 μL of incubate to 60 μL methanol at the appropriate time points. The termination plates were centrifuged at 2500 rpm for 20 min at 4 °C to precipitate the protein.
Following protein precipitation, the sample supernatants were combined in cassettes of up to 4 compounds, the internal standard was added, and samples were analysed using Cyprotex generic LC-MS/MS conditions.
From a plot of ln peak area ratio (compound peak area/internal standard peak area) against time, the gradient of the line was determined.

[7] = target: hERG potassium channel (Homo sapiens, UniProt Q12809); assay: hERG channel inhibition (IonWorks automated patch clamp, CHO-hERG cells)
Sequence of hERG potassium channel (Q12809 whole entry): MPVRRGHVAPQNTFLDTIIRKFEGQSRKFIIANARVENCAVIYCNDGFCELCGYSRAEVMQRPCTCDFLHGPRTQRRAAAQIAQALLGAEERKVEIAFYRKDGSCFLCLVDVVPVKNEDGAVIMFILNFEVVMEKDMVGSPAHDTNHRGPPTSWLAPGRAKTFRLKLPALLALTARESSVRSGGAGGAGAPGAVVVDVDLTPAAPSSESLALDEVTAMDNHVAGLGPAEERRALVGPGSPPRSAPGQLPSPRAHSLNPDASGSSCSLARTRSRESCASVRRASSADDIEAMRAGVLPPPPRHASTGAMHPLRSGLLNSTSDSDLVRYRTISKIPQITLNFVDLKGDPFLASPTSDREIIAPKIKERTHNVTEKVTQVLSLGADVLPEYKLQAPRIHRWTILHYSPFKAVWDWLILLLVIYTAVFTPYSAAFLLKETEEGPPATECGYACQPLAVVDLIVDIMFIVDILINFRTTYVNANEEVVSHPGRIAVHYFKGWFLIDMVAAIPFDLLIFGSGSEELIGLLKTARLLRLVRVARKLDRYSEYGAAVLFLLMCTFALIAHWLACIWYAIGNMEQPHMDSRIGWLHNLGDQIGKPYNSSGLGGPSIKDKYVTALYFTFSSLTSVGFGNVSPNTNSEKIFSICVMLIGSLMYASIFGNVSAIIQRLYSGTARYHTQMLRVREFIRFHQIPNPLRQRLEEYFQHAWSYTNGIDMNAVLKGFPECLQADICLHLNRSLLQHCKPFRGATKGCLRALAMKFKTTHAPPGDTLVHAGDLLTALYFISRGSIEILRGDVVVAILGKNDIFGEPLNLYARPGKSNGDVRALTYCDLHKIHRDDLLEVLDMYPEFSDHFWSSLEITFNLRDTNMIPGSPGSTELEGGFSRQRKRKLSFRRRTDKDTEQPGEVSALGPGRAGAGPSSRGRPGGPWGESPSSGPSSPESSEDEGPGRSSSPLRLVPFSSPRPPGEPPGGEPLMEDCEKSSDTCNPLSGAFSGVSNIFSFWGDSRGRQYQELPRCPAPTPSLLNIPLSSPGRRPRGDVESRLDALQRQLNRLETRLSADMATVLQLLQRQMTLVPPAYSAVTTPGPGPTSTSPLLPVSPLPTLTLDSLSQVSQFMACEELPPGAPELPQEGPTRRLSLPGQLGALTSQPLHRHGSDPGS
Method: Mammalian cells expressing the hERG potassium channel were dispensed into 384-well planar arrays and hERG tail-currents measured by whole-cell voltage-clamping. A range of concentrations of the test compound was then added to the cells and a second recording of the hERG current was made. […] IC50 is delivered, standard error (SE IC50), and n (number of data points used to calculate IC50) for the test compound. The experiments were performed on an Ion Works TM automated patch clamp instrument (Molecular Devices LLC (San Jose, California, United States)), which simultaneously performs electrophysiology measurements for 48 single cells in a specialised 384-well plate (PatchPlateTM(manufacturer, city, state if USA or Canada, country)). All cell suspensions, buffers, and test compound solutions were at room temperature during the experiment.
The cells used were Chinese hamster ovary (CHO) cells stably transfected with hERG (cell-line obtained from Cytomyx, UK). A single-cell suspension was prepared in extracellular solution (Dulbecco’s phosphate buffered saline with calcium and magnesium pH 7.2) and aliquots added automatically to each well of a Patch Plate TM. The cells were then positioned over a small hole at the bottom of each well by applying a vacuum beneath the plate to form an electrical seal. The vacuum was applied through a single compartment common to all wells which was filled with intracellular solution (buffered to pH 7.2 with HEPES). The resistance of each seal was measured via a common ground-electrode in the intracellular compartment and individual electrodes placed into each of the upper wells.
Electrical access to the cell was then achieved by circulating a perforating agent, amphotericin B, underneath the PatchPlateTM. The pre-compound hERG current was then measured. An electrode was positioned in the extracellular compartment and a holding potential of −80 mV applied for 15 s. The hERG channels were then activated by applying a depolarising step to +40 mV for 5 s and then clamped at −50 mV for 4 s to elicit the hERG tail current, before returning to −80 mV for 0.3 s.
The Ion Works TM instrument automatically adds test compound dilutions to the upper wells of the PatchPlateTM. The test compound was left in contact with the cells for 300 s before recording currents using the same voltage-step protocol as in the pre-compound scan.
Each concentration was tested in 4 replicate wells on the PatchPlateTM (maximum of 24 data points). Filters were applied to ensure only acceptable cells were used to assess hERG inhibition.
For each replicate, the hERG response was calculated using the following equation:% hERG response = [Post-compound current (nA)/Pre-compound current (nA)] × 100(5)

[8] = system: MDA-MB-231, T47D, BT474, and MIAPaCa2; assay: Cell viability assay, statements across the four cell lines; assay type: cell-based, human
Method: as §1

Structure (SMILES) | IC50 [1] | IC50 ([2]; Homo sapiens, T47D, 72 h) | IC50 ([3]; Homo sapiens, BT-474, 72 h) | IC50 [4] | Estimated Precipitation Range, Calculated Mid-Range [5] | Estimated Precipitation Range, Lower Bound [5] | Estimated Precipitation Range, Upper Bound [5] | Aqueous solubility (in words) [5] | Compound Remaining (% of 0 min), 0 min [6] | Compound Remaining (% of 0 min), 5 min [6] | Compound Remaining (% of 0 min), 15 min [6] | Compound Remaining (% of 0 min), 30 min [6] | Compound Remaining (% of 0 min), 45 min [6] | Compound Remaining (% of 0 min), Control [6] | half-life at 3 μM ([6]; pooled liver microsomes) | microsomal CLint at 3 μM ([6]; pooled liver microsomes) | IC50 [7] | also measured
CC(C)(C)c1ccc(C(CN)c2ccc(OC(F)(F)F)cc2)cc1 (stereo not shown) [5a, 2-(4-tert-butylphenyl)-2-(4-trifluoromethoxyphenyl)ethan-1-aminium hydrochloride] | 5.63 µM | 4.94 µM | 5 µM | 5.51 µM | 65 µM | 30 µM | 100 µM | moderate solubility | 100 % of 0 min | 95.8 % of 0 min | 92.3 % of 0 min | 86.0 % of 0 min | 81.4 % of 0 min | 91.0 % of 0 min | 2.6 h | 8.91 µL/min/mg | 3.59 µM | 
CC(C)(C)c1ccc(C(CN)c2ccc(SC(F)(F)F)cc2)cc1.Cl (stereo not shown) [5b, 2-(4-tert-butylphenyl)-2-(4-(trifluoromethyl)thiophenyl)ethan-1-aminium chloride] | 11.8 µM | 11.4 µM | 12.5 µM | 15.7 µM | 11.5 µM | 3 µM | 20 µM | relatively reduced solubility comparable to pyrene |  |  |  |  |  |  |  |  |  | 
CC(C)(C)c1ccc(C(CN)c2ccc(F)cc2)cc1.Cl (stereo not shown) [5c, 2-(4-tert-butylphenyl)-2-(4-fluorophenyl)ethan-1-aminium chloride] | 12.8 µM | 13.4 µM | 8.94 µM | 15.1 µM | >100 µM | 100 µM | >100 µM | high aqueous solubility | 100 % of 0 min | 94.7 % of 0 min | 95.0 % of 0 min | 86.1 % of 0 min | 82.5 % of 0 min | 98.0 % of 0 min | 2.8 h | 8.26 µL/min/mg |  | 
CC(C)(C)c1ccc(C(CN)c2ccccc2F)cc1 (stereo not shown) [5d, 2-(4-tert-butylphenyl)-2-(2-fluorophenyl)ethan-1-aminium chloride] | 14.8 µM | 14.7 µM | 14.8 µM | 15.8 µM |  |  |  |  |  |  |  |  |  |  |  |  |  | 
CC(C)(C)c1ccc(C(CN)c2cccc(F)c2)cc1 (stereo not shown) [5e, 2-(4-tert-butylphenyl)-2-(3-fluorophenyl)ethan-1-aminium chloride] | 14.1 µM | 14.4 µM | 15 µM | 17 µM |  |  |  |  |  |  |  |  |  |  |  |  |  | 
CC(C)(C)c1ccc(C(CN)c2ccc(C(C)(C)C)cc2)cc1.Cl [5f, 2,2-Bis(4-tert-butylphenyl)ethan-1-aminium chloride] | 5.06 µM | 4.7 µM | 4.59 µM | 5.28 µM | 3.75 µM | 1 µM | 6.5 µM | relatively reduced solubility comparable to pyrene | 100 % of 0 min | 97.2 % of 0 min | 92.2 % of 0 min | 88.0 % of 0 min | 80.7 % of 0 min | 88.0 % of 0 min |  | 9.34 µL/min/mg | > 25 µM | IC50 [2]: 4.59 µM; IC50 [3]: 4.7 µM; half-life at 3 μM ([6]; microsomes): 2.47 h; IC50 ([8]; Homo sapiens, MDA-MB-231, T47D, BT474, and MIAPaCa2, read-out: IC50 values range across cell lines): 4.59 to 5.28 µM; Anti-proliferative activity (in words) across the four cell lines ([8]; three human breast and one pancreatic cancer cell line, up to 100 μM): low micromolar antiproliferative activity
